# Experimental data published in PubChem BioAssay AID1996.
# Details: buffer; pH 7.4; 200.0 µM
row,SMILES,solubility kinetic [µg/mL]
1,Cc1cccc(NC(=O)CN2C(=O)NC3(CCCC3)C2=O)n1,> 45.3
2,COc1cccc(-c2cc(-c3cccnc3)nc(N)c2C#N)c1,2.3
3,CCCCc1nnc(SCC(=O)Nc2nccs2)n1CC,> 48.8
4,N#Cc1ccc(COC(=O)c2cnc(Cl)c(Cl)c2)cc1,1.4
5,O=C1CN(S(=O)(=O)c2ccccc2)c2ccccc2N1,> 43.2
6,CC(C)N1C(=O)N(c2cccc(Cl)c2)C(C)(O)CC1(C)C (stereo not given),> 46.6
7,COc1ccccc1CNC1CCN(Cc2ccccc2)CC1,> 46.6
8,O=C(O)C1CCCN1C1=NS(=O)(=O)c2ccccc21 (stereo not given),> 42
9,CC(=O)N1CCN(CC(=O)Nc2sccc2C#N)CC1,39
10,Cc1ccc(C2NC(c3ccc(C)cc3)C(C)C(=O)C2C)cc1 (stereo not given),< 0.7
11,Cc1ccc(S(=O)(=O)/N=C/c2c(O)ccc3ccccc23)cc1,30.8
12,CCOC(=O)N1CCN(C(=S)NC(=O)C2CCCC2)CC1,> 47
13,CCC(C)(C)NC(=O)C1CC(=O)N(CCc2ccc(F)cc2)C1 (stereo not given),> 48.1
14,Cc1ccccc1Nc1ncnc(N)n1,> 30.2
15,Cc1ccccc1OCC(=O)Nc1nc(-c2ccncc2)cs1,4.9
16,NC(=S)NC1CC2C=CC1C2 (stereo not given),> 25.2
17,Cc1ccc(NC(=O)NCc2cccnc2)cc1C,38.2
18,CC(C)CN1CCN(Cc2ccccc2C(F)(F)F)CC1CCO (stereo not given),48.7
19,O=C(CCCn1cnc2ccccc2c1=O)Nc1ccccc1F,20.2
20,O=C(Nc1cccc([N+](=O)[O-])c1)C1C2CC/C=C\CCC21 (stereo not given),0.8
21,O=[N+]([O-])c1cc(C(F)(F)F)ccc1NC1CCN(Cc2ccccc2)CC1,2.6
22,CC1(C)C(=O)Nc2ccccc2N1C(=O)COC(=O)c1cccs1,9.6
23,Cc1cc(C)c(NC(=O)C2CCCO2)c(C)c1 (stereo not given),> 35
24,CC(Sc1nnc2n1CCCCC2)C(=O)Nc1ccccc1[N+](=O)[O-] (stereo not given),> 54.2

row,SMILES,solubility kinetic [µg/mL]
1,O=C(NCC1CCCCC1)c1ccc(F)cc1Cl,20.4
2,CCOC(=O)C1CCN(C(=O)/C=C/c2ccc3c(c2)OCO3)CC1,> 49.7
3,COc1cccc2[nH]c3c(N4CCc5ccccc5C4)ncnc3c12,0.9
4,Clc1ccc(CN2CCCCCC2)cc1.O=C(O)C(=O)O,24.9
5,C=CCNC(=O)NC(=O)CSc1nnc(C(F)(F)F)n1C,> 48.5
6,CCOC(=O)CSc1nc2c(c(=O)[nH]1)C(C)(CC)Cc1ccccc1-2 (stereo not given),1.5
7,CC1CN(C(=S)Nc2cccc(Cl)c2Cl)CC(C)O1 (stereo not given),18.9
8,CCOC(=O)Cn1cnc2scc(-c3ccc(C)cc3)c2c1=O,38.2
9,N#C/C(=C\c1ccncc1)c1ccccn1,> 31.1
10,CC(C)(C)c1ccc(C(=O)NCCN2CCOCC2)cc1,> 43.6
11,O=C(O)Cc1ccc(NS(=O)(=O)c2ccc3ccccc3c2)cc1,> 51.2
12,COc1ccc2[nH]c(=O)c(CNc3ccccc3C)cc2c1,27.6
13,O=S(=O)(c1ccc(-c2ccccc2)cc1)N1CCCC1,3
14,COc1ccc(Cl)cc1C(=O)Nc1nc2ccccc2[nH]1,1.2
15,O=C(Nc1cccc(Cl)c1)c1cncn1-c1ccc(F)cc1,45.4
16,CC1(NC(=O)Nc2ccccc2)CCS(=O)(=O)C1 (stereo not given),> 40.2
17,O=C(NCc1ccccc1)N1CCOCC1,> 33
18,CCOc1ncccc1C(=O)OCC(=O)c1ccc(Br)s1,> 55.5
19,Cc1ccc(NC(=O)COC(=O)Cn2cnc3ccccc32)c(C)c1,42.4
20,Nc1[nH]c(=O)nc(Nc2ccccc2)c1N=O,> 34.7
21,O=C(Nc1cccc(C(=O)Nc2ccc(Cl)cn2)c1)c1ccccc1,0.7
22,O=C(Nc1ccc(F)cc1)C1CC2CCC1C2 (stereo not given),25.3
23,CC(C)(C)NC(=O)COC(=O)CCC(=O)c1cccs1,> 44.6
24,Cc1ccc(-c2noc(COC(=O)c3ccco3)n2)cc1,8.8

row,SMILES,solubility kinetic [µg/mL]
1,CC1CCc2ccccc2N1C(N)=Nc1ccccc1.Cl (stereo not given),> 45.3
2,CCSc1nsc(NC(=O)Nc2cccc(C(C)=O)c2)n1,1.6
3,Cc1ccc(CNS(=O)(=O)c2ccc([N+](=O)[O-])cc2)cc1,1.8
4,Cc1ccc(CC(=O)NCC2CCCCC2)cc1,9.3
5,O=C(COC(=O)CNC(=O)C1CCCCC1)Nc1ccccc1,> 47.8
6,Cc1c(C(=O)N2CCCc3ccccc32)oc2ccccc12,5.7
7,COc1ccc(OCC(=O)Nc2ccc3c(c2)CCC3)cc1,19.3
8,COc1cc(N(C)C)c([N+](=O)[O-])cc1C(=O)N1CCOCC1,> 46.4
9,O=C(Cc1ccccc1F)OCN1C(=O)c2ccccc2C1=O,47
10,N/C(=N\OC(=O)COc1ccccc1)c1ccncc1,> 40.7
11,O=C(/C=C/c1ccc(S(=O)(=O)N2CCOCC2)cc1)Nc1cc(F)ccc1F,5.5
12,CC1CCN(C2=NC(=O)/C(=C/c3cccc(O)c3)S2)CC1,2.3
13,O=C(c1ccccc1)C1CN(Cc2ccccc2)CCC1(O)c1ccccc1 (stereo not given),10.4
14,Cc1ccc(S(=O)(=O)N2CCOCC2)cc1NC(=O)c1ccc(F)cc1F,8.2
15,CC1CN=C(Nc2ccc(F)cc2)S1 (stereo not given),> 31.5
16,O=C(NCCc1ccncc1)Nc1ccc(Cl)c(Cl)c1,> 46.5
17,CCCN1CCN(S(=O)(=O)c2ccc3c(c2)OCCO3)CC1,> 49
18,CCn1c(C)nc2cc(N)ccc21.Cl,34.3
19,COc1ccc(OCCN2CCOCC2)cc1,30.9
20,Cc1cccnc1NC(=O)CNC(=O)c1ccccc1,> 40.4
21,CCN(CC(=O)NCc1ccco1)S(=O)(=O)c1ccc(F)cc1,> 51.1
22,COC(=O)c1cc(S(=O)(=O)NC2CCCCC2)cn1C,42
23,O/N=C(\CN1CCCCC1)c1ccccc1,> 32.7
24,CC(=O)n1c(-c2ccccc2)c(-c2ccccc2)n(C)c1=O,> 43.9

row,SMILES,solubility kinetic [µg/mL]
1,Cc1ccc(C(=O)NCCCNC(=O)c2ccc(Cl)cc2)cn1,36.6
2,CN1C(=O)C(=O)/C(=C(/O)c2ccccc2)C1c1ccc(Br)cc1 (stereo not given),> 55.8
3,COc1ccccc1N(CC(=O)Nc1ccccc1C(F)(F)F)S(=O)(=O)c1cccs1,9
4,O=C(OCC(=O)N1CCC(Cc2ccccc2)CC1)c1cccnc1Cl,46.2
5,Cc1noc(C)c1COC(=O)c1cc(S(=O)(=O)N2CCOCC2)ccc1Cl,42.4
6,COc1ccc2c(C(=O)CN3CCSCC3)c[nH]c2c1,36.8
7,Oc1ccc(Br)cc1C1Nc2ccccc2S1 (stereo not given),< 0.7
8,C#CCN1C(=O)S/C(=C\c2ccc(-c3ccc(C(=O)O)cc3C)o2)C1=O,35
9,OCCN(CC#CC(O)(c1ccccc1)c1ccccc1)CCO,> 48.8
10,CC(=O)C1=C(O)C(=O)N(c2nccs2)C1c1ccccc1F (stereo not given),> 47.7
11,CC(O)CNc1nc2c(c(=O)n(Cc3ccccc3)c(=O)n2C)n1C (stereo not given),> 51.5
12,CCNc1nc(N)c(C(=O)C23CC4CC(CC(C4)C2)C3)s1,2
13,NC(=O)c1cc(-c2cccnc2)nc2ccc(Br)cc12,2.2
14,COc1ccc([N+](=O)[O-])cc1NS(=O)(=O)c1cccc(C(=O)OC2CCOC2=O)c1 (stereo not given),> 65.5
15,CC(C)(C)OC(=O)N1CCCN(C(=O)Nc2ccc(C(F)(F)F)cc2)CC1,53.8
16,CC(=O)Oc1c(C(C)C)cc(N(C(C)=O)c2ccccc2)cc1C(C)C,41.5
17,Cc1ccc(C(=O)OCC(=O)NCc2ccc(F)cc2)o1,> 43.7
18,Cc1ccc(C)c(NC(=O)CCN2CCC(C)CC2)c1,> 41.2
19,CN(CC(=O)NCC1COc2ccccc2O1)S(=O)(=O)c1ccc(Cl)cc1 (stereo not given),17.9
20,Cc1ccc(OCC(O)CNCc2ccccc2)cc1C (stereo not given),36.2
21,O=C(Cn1c(=O)sc2ccccc21)Nc1ccc(O)cc1,> 45
22,N#Cc1ccc(C(=O)NC23CC4CC(CC(C4)C2)C3)cc1,0.8
23,Cc1ccc(OCCNC(=O)c2cc(=O)[nH]c3ccccc23)cc1,2
24,O=C(/C=C/c1cccs1)NC1CCCC1,> 33.2

row,SMILES,solubility kinetic [µg/mL]
1,O=C1NC(=O)C(c2ccccc2)(c2ccc(O)cc2)N1 (stereo not given),> 40.2
2,Cn1cccc1C(=O)OCc1ccc(F)cc1,< 0.5
3,CCOc1ccc(N=C2NC(=O)CS2)cc1,> 35.4
4,CCC(C(=O)NCCc1ccccc1)c1ccccc1 (stereo not given),> 40.1
5,Cc1ccc(Nc2c(-c3ccc(C)o3)nc3ncccn23)cc1,1.9
6,Cc1cc(O)ccc1NS(=O)(=O)c1ccc2c3c(cccc13)C(=O)N2,48.8
7,O=C(CN1CCCC1)Nc1ccccc1Sc1ccc(Cl)cc1,8.6
8,O=C(CS(=O)CC(=O)NC12CC3CC(CC(C3)C1)C2)Nc1ccc(F)cc1 (stereo not given),16.2
9,CCOC(=O)c1c(NC(=O)CNC2CCCCC2)sc(C)c1C,< 0.4
10,COCC(=O)Nc1cc(C)cn(Cc2ccccc2Cl)c1=O,41.4
11,CC(=NCC1CCCO1)c1c(O)n(C2CCCCC2)c(=O)[nH]c1=O (stereo not given),> 50.3
12,O=C(Nc1ccccc1)Nc1ccc(C(F)(F)F)cn1,0.2
13,O=C(c1cnsn1)N1CCC(CO)(Cc2cccc(F)c2)CC1,44.4
14,FC(F)(F)c1ccc(Cl)c(NC2=NCCCCC2)c1,> 43.6
15,O=C(COC(=O)c1ccccc1)Nc1ccc2[nH]c(=O)[nH]c2c1,7.2
16,COc1ccccc1CCNS(=O)(=O)c1cn(C)nc1C,> 46.4
17,CCOC(=O)c1sc(N)c(C(=O)OCC)c1C,4.4
18,COc1ccc(NC(=O)CN(C)C(=O)Cc2ccsc2)cc1,42
19,CC1C(=O)C(C)(C)C(=O)OC1c1ccc([N+](=O)[O-])cc1 (stereo not given),12.4
20,CCOC(=O)C(C)Oc1ccc(NC(=O)C(Cl)Cl)cc1 (stereo not given),> 48
21,O=C(O)CC1(CC(=O)Nc2ccc3sccc3c2)CCCCC1,42.6
22,CC(=O)c1ccc(NC(=O)C(C)Sc2ccccn2)cc1 (stereo not given),> 45.1
23,O=[N+]([O-])/C(=C\Nc1ccc(F)cc1F)S(=O)(=O)c1ccccc1,> 51
24,Cc1ccc(/C=N/NC(=O)c2cccnc2)s1,> 36.8
